Laboratory results reported in US20140288071A1, “INHIBITORS OF NOTUM […] AND METHODS OF THEIR USE” (priority 2011, published 2014).

What was measured:
[1] = target: T1, human notum pectinacetyltransferase (Homo sapiens, UniProt Q6P988); assay: Reporter assay (CellSensor LEF/TCF-bla FreeStyle 293F cells, Wnt3a and notum conditioned media); type: cell-based
T1 construct: made in house; conditioned medium used
T1 sequence (Q6P988 20-496): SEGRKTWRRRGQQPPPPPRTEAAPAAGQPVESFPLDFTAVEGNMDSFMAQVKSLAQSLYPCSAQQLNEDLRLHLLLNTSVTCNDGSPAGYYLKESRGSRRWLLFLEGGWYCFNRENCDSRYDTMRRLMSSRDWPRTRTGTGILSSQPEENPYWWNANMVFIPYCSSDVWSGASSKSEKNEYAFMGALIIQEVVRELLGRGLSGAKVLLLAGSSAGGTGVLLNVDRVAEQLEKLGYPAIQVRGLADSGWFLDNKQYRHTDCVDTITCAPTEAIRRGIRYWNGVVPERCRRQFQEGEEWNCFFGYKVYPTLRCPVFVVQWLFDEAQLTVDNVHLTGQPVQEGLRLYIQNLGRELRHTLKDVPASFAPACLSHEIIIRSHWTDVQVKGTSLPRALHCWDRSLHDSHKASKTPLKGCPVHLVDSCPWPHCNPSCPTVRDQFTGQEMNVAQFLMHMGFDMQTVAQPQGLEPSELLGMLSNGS
Method: Plasmid containing human notum pectinacetyltransferase in pcDNA3.1(+) vector was transfected into HEK293 cells and clones were selecting by growing in presence of 400 ug/mL of G418. […] L cells overexpressing and secreting Wnt3a into the conditioned media were purchased from ATCC.
The assay protocol was as follows. […] The cell growth medium consisted of DMEM with 10% Dialyzed FBS, 5 μg/ml Blasticidin (Invitrogen, R210-01), 0.1 mM NEAA, 25 mM HEPES and 1×GPS. Cells were then trypsinized by first rinsing with PBS, followed by addition of 5 mL of trypsin and incubation of plates at room temperature for two minutes. A total of 10 mL of assay media (Opti-MEM, plus 0.5% dialyzed FBS, 0.1 mM NEAA, 1 mM sodium pyruvate, 10 mM HEPES, 1×GPS) was then added per 15 cm plate. Cells were counted and suspended at 0.75 million cells per mL. […] After incubation of cells at 37° C. for 3 hours, 10 μL of 30 mM LiCl in assay medium was added per well, followed by incubation at 37° C. for another 3 hours. […] Ten μL of the Wnt3a/notum pentinacetyltransferase mixture was then transferred from Greiner plates to each well of the 384-well plates containing the CellSensor cells. After incubation of cells overnight at 37° C., reactions were developed by addition of […] of 1×CCF4 (Invitrogen, Catalogue number K1085) to each well, covering the entire 384-well plate, and gentle rocking in the dark at room temperature for 3 hours.

[2] = target: T1, human notum pectinacetyltransferase; assay: Binding assay (OPTS esterase substrate, fluorimetric); type: biochemical; settings: OPTS substrate 5 μM
Method: Plasmid containing human notum pectinacetyltransferase in pcDNA3.1(+) vector was transfected into HEK293 cells and clones were selecting by growing in presence of 400 ug/mL of G418. Condition media from these cells was used for the assay.

| Molecule | EC50 [1] | IC50 [2] |
| --- | --- | --- |
| Cc1sc2ncnc(SCC(=O)O)c2c1Br [2-((5-bromo-6-methylthieno[2,3-d]pyrimidin-4-yl)thio)acetic acid] | < 1000 nM | < 25 nM |
| Cc1sc2ncnc(SCC(=O)NS(C)(=O)=O)c2c1Cl [2-((5-chloro-6-methylthieno[2,3-d]pyrimidin-4-yl)thio)-N-(methylsulfonyl)acetamide] | < 1000 nM |  |
| Cc1sc2ncnc(SCC(=O)O)c2c1C1CC1 [2-((5-cyclopropyl-6-methylthieno[2,3-d]pyrimidin-4-yl)thio)acetic acid] | < 5000 nM | < 25 nM |
| Cc1sc2ncnc(SCC(=O)NOC3CCCCO3)c2c1C (centres unmarked) [2-((5,6-dimethylthieno[2,3-d]pyrimidin-4-yl)thio)-N-((tetrahydro-2H-pyran-2-yl)oxy)acetamide] | < 1000 nM | < 25 nM |
| CCc1sc2ncnc(SCC(=O)O)c2c1Cl [2-((5-chloro-6-ethylthieno[2,3-d]pyrimidin-4-yl)thio)acetic acid] | < 1000 nM | < 25 nM |
| Cc1sc2ncnc(SCC(=O)NCCC#N)c2c1Cl [2-((5-chloro-6-methylthieno[2,3-d]pyrimidin-4-yl)thio)-N-(2-cyanoethyl)acetamide] | < 1000 nM | < 25 nM |
| Cc1sc2ncnc(SCC(=O)NCC#N)c2c1Cl [2-((5-chloro-6-methylthieno[2,3-d]pyrimidin-4-yl)thio)-N-(cyanomethyl)acetamide] | < 1000 nM | < 25 nM |
| Cc1sc2ncnc(SCC(=O)N(C)CC(=O)O)c2c1Cl [2-(2-((5-chloro-6-methylthieno[2,3-d]pyrimidin-4-yl)thio)-N-methylacetamido)acetic acid] | < 1000 nM |  |
| Cc1c(Cl)sc2c(SCC(=O)NCCN3CCCCC3)ncnc12 [2-((6-chloro-7-methylthieno[3,2-d]pyrimidin-4-yl)thio)-N-(2-(piperidin-1-yl)ethyl)acetamide] | < 1000 nM |  |
| Cc1sc2ncnc(SCC(=O)NO)c2c1C [2-((5,6-dimethylthieno[2,3-d]pyrimidin-4-yl)thio)-N-hydroxyacetamide] | < 1000 nM | < 25 nM |
| Cc1sc2ncnc(SCC(=O)NC(C)CO)c2c1Cl (centres unmarked) [2-((5-chloro-6-methylthieno[2,3-d]pyrimidin-4-yl)thio)-N-(1-hydroxypropan-2-yl)acetamide] | < 5000 nM |  |
| O=C(O)CSc1ncnc2sc3c(c12)CCC3 [2-((6,7-dihydro-5H-cyclopenta[4,5]thieno[2,3-d]pyrimidin-4-yl)thio)acetic acid] | < 5000 nM | < 25 nM |
| Cc1c(Br)sc2ncnc(SCC(=O)O)c12 [2-((6-bromo-5-methylthieno[2,3-d]pyrimidin-4-yl)thio)acetic acid] | < 1000 nM | < 25 nM |
| Cc1sc2ncnc(SCC(=O)NCCN3CCOCC3)c2c1Cl [2-((5-chloro-6-methylthieno[2,3-d]pyrimidin-4-yl)thio)-N-(2-morpholinoethyl)acetamide] | < 1000 nM | < 25 nM |
| CNC(=O)CSc1ncnc2sc(C)c(C)c12 [2-((5,6-dimethylthieno[2,3-d]pyrimidin-4-yl)thio)-N-methylacetamide] | < 1000 nM | < 25 nM |
| Cc1sc2ncnc(SCC(N)=O)c2c1C [2-((5,6-dimethylthieno[2,3-d]pyrimidin-4-yl)thio)acetamide] | < 1000 nM | < 25 nM |
| CCNC(=O)CSc1ncnc2sc(C)c(Cl)c12 [2-((5-chloro-6-methylthieno[2,3-d]pyrimidin-4-yl)thio)-N-ethylacetamide] | < 1000 nM | < 25 nM |
| CC(C)c1sc2ncnc(SCC(=O)O)c2c1Br [2-((5-bromo-6-isopropylthieno[2,3-d]pyrimidin-4-yl)thio)acetic acid] | < 1000 nM | < 25 nM |
| CON(C)C(=O)CSc1ncnc2sc(C)c(C)c12 [2-((5,6-dimethylthieno[2,3-d]pyrimidin-4-yl)thio)-N-methoxy-N-methylacetamide] | < 1000 nM | < 25 nM |
| Cc1sc2ccnc(SCC(=O)O)c2c1Cl [2-((3-chloro-2-methylthieno[3,2-c]pyridin-4-yl)thio)acetic acid] | < 5000 nM |  |
| O=C(O)CSc1ncnc2c(C3CC3)c(C(F)(F)F)sc12 [2-(7-cyclopropyl-6-(trifluoromethyl)thieno[3,2-d]pyrimidin-4-yl)thio)acetic acid] | < 1000 nM | < 25 nM |
| Cc1cc(NC(=O)CSc2ncnc3sc(C)c(C)c23)no1 [2-((5,6-dimethylthieno[2,3-d]pyrimidin-4-yl)thio)-N-(5-methylisoxazol-3-yl)acetamide] | < 1000 nM | < 25 nM |
| CCCc1sc2ncnc(SCC(=O)O)c2c1Cl [2-((5-chloro-6-propylthieno[2,3-d]pyrimidin-4-yl)thio)acetic acid] | < 1000 nM | < 25 nM |
| Cc1sc2c(SCC(=O)O)ncnc2c1C [2-((6,7-dimethylthieno[3,2-d]pyrimidin-4-yl)thio)acetic acid] |  | < 25 nM |

The next lines start with the values.

| EC50 [1] | IC50 [2] | Molecule |
| --- | --- | --- |
| < 1000 nM | < 25 nM | Cc1c(Cl)sc2c(SCC(=O)NCC#N)ncnc12 [2-((6-chloro-7-methylthieno[3,2-d]pyrimidin-4-yl)thio)-N-(cyanomethyl)acetamide] |
| < 1000 nM | < 25 nM | CCCOC(=O)CSc1ncnc2sc(C)c(C)c12 [propyl 2-((5,6-dimethylthieno[2,3-d]pyrimidin-4-yl)thio)acetate] |
| < 1000 nM | < 25 nM | Cc1c(Cl)sc2c(SCC(=O)NCCC#N)ncnc12 [2-((6-chloro-7-methylthieno[3,2-d]pyrimidin-4-yl)thio)-N-(2-cyanoethyl)acetamide] |
| < 1000 nM | < 50 nM | Cc1sc2ncnc(SCC(=O)NCCc3cn[nH]c3)c2c1Cl [N-(2-(1H-pyrazol-4-yl)ethyl)-2-((5-chloro-6-methylthieno[2,3-d]pyrimidin-4-yl)thio)acetamide] |
| < 1000 nM | < 25 nM | COC(=O)CSc1ncnc2sc(C)c(C)c12 [methyl 2-((5,6-dimethylthieno[2,3-d]pyrimidin-4-yl)thio)acetate] |
| < 5000 nM |  | Cc1c(C2CC2)sc2ncnc(SCC(=O)O)c12 [2-((6-cyclopropyl-5-methylthieno[2,3-d]pyrimidin-4-yl)thio)acetic acid] |
| < 1000 nM | < 25 nM | COC(=O)CSc1ncnc2c(C)c(Cl)sc12 [methyl 2-((6-chloro-7-methylthieno[3,2-d]pyrimidin-4-yl)thio)acetate] |
| < 1000 nM |  | Cc1c(C#N)sc2c(SCC(=O)O)ncnc12 [2-((6-cyano-7-methylthieno[3,2-d]pyrimidin-4-yl)thio)acetic acid] |
| < 1000 nM | < 25 nM | Cc1sc2ncnc(SCC(=O)NC#N)c2c1C [N-cyano-2-((5,6-dimethylthieno[2,3-d]pyrimidin-4-yl)thio)acetamide] |
| < 1000 nM | < 25 nM | CCCCOC(=O)CSc1ncnc2sc(C)c(C)c12 [butyl 2-((5,6-dimethylthieno[2,3-d]pyrimidin-4-yl)thio)acetate] |
| < 1000 nM | < 25 nM | 2-(7-cyclopropyl-6-(trifluoromethyl)thieno[3,2-d]pyrimidin-4-yl)thio)acetate |
| < 1000 nM | < 25 nM | Cc1sc2ncnc(SCC(=O)OC(C)C)c2c1Cl [isopropyl 2-((5-chloro-6-methylthieno[2,3-d]pyrimidin-4-yl)thio)acetate] |
| < 1000 nM |  | COC(=O)CSc1ncnc2c(C)c(C#N)sc12 [methyl 2-((6-cyano-7-methylthieno[3,2-d]pyrimidin-4-yl)thio)acetate] |
|  | < 50 nM | Cc1c(C(C)C)sc2ncnc(SCC(=O)O)c12 [2-((6-isopropyl-5-methylthieno[2,3-d]pyrimidin-4-yl)thio)acetic acid] |
| < 1000 nM |  | Cc1c(Cl)sc2c(SCC(=O)NCc3cccs3)ncnc12 [2-((6-chloro-7-methylthieno[3,2-d]pyrimidin-4-yl)thio)-N-(thiophen-2-ylmethyl)acetamide] |
|  | < 25 nM | Cc1sc2ncnc(SCC(=O)Nc3n[nH]c4cccc(Cl)c34)c2c1C [N-(4-chloro-1H-indazol-3-yl)-2-((5,6-dimethylthieno[2,3-d]pyrimidin-4-yl)thio)acetamide] |
